Peptide text beside a SMILES is read from it.

System in one data set: not listed separately
As to the kind of experiment: Evaluation of melting/dissolution (Example A): melting of auxiliary raw material and dissolution of Reb. D in the melt.
Settings: not given
Here is the method:
The meltability of a raw material to be combined with Reb. D (hereinafter also referred to as “the auxiliary raw material”) and the solubility of Reb. D were evaluated, and the auxiliary raw material with which the complex of the present invention can be obtained was examined. As the auxiliary raw material, raw materials described in the table below were selected from food additives that can be added to beverages. The raw materials used for forming the complex are as follows: Reb. D formulation (purity: 95% (w/w), manufactured by Jining Renewal and Joint International); D-allulose (purity: 99%+), arabinose (purity: 98%+), fructose (purity: 99%+), glucose (purity: 99%+), maltose monohydrate (purity: 95%+), mannitol (purity: 99%+), mannose (purity: 98%+), rhamnose (purity: 98%+), ribose (purity: 98%+), sucrose (purity: 99%+), xylitol (purity: 98%+) and xylose (purity: 98%+), trehalose dihydrate (purity: 98%+), sodium pantothenate (purity: 98%+) (each manufactured by NACALAI TESQUE, INC.); and erythritol (purity: 98% (w/w), manufactured by Mitsubishi-Chemical Foods Corporation). Also in the subsequent working examples, the raw materials described above were used unless otherwise stated.
The auxiliary raw material described in Table 1 was mixed with 100 mg of Reb. D formulation (purity: 95% (w/w)) in a heat-resistant vial, the temperature was elevated to the melting point of the auxiliary raw material or higher, and it was confirmed whether or not the auxiliary raw material was melted. After melting of the auxiliary raw material and dissolution of the Reb. D formulation were visually confirmed, the mixture was rapidly cooled in ice and stored at 10° C. The weight of the auxiliary raw material was adjusted based on the amount that enables dissolution of Reb. D. The weight of D-allulose (another name: D-psicose) was 2,000 mg, the weight of L-glutamine was 1,000 mg, the weight of vitamin D3 was 1,144 mg, and the weight of an auxiliary raw material other than those was 4,000 mg. The case where it was recognized that the auxiliary raw material was melted and that Reb. D was dissolved (including the case where dissolution was visually recognized more when compared to the point of adding (complete dissolution is not required)) was evaluated as “O”, and the case where it was not recognized that the auxiliary raw material was melted even at a temperature equal to or higher than the melting point of the auxiliary raw material, or the case where it was not recognized that Reb. D was dissolved though the auxiliary raw material was successfully melted (after the addition, change in outer appearance was not visually recognized) was evaluated as “X”.
`OC[C@H]1O[C@H](O[C@H]2[C@H](O)[C@@H](O)C(O)O[C@@H]2CO)[C@H](O)[C@@H](O)[C@@H]1O` (mixture of isomers) [Maltose]: the Melting/dissolution entry was “◯”.
Turning to `O=C(O)CC(O)C(=O)O` (racemic) [DL-malic acid], the Melting/dissolution entry is on record as “◯”.
In the case of `O=C[C@@H](O)[C@H](O)[C@H](O)CO` [Arabinose], the Melting/dissolution entry is listed as “◯”.
As for `O=C(CO)[C@H](O)[C@H](O)[C@H](O)CO` [D-allulose], the Melting/dissolution result is “◯”.
In the case of `OC[C@@H](O)[C@@H](O)CO` [Erythritol], the Melting/dissolution result was “◯”.
Turning to `O=C(CO)[C@@H](O)[C@H](O)[C@H](O)CO` [Fructose], the Melting/dissolution entry is “◯”.
As to `NC(=O)CC[C@H](N)C(=O)O` [L-glutamine], the Melting/dissolution result is “◯”.
Turning to `OC[C@@H](O)[C@@H](O[C@H]1O[C@H](CO)[C@@H](O)[C@H](O)[C@H]1O)[C@H](O)[C@@H](O)CO` [Maltitol], the Melting/dissolution entry is “◯”.
Regarding `OC[C@@H](O)[C@@H](O)[C@H](O)[C@H](O)CO` [Mannitol], the Melting/dissolution result is recorded as “◯”.
Consider `C[C@H](O)[C@H](O)[C@@H](O)[C@@H](O)C=O` [Rhamnose], for which the Melting/dissolution entry is listed as “◯”.
On to `O=C[C@H](O)[C@H](O)[C@H](O)CO` [Ribose], for which the Melting/dissolution result is given as “◯”.
Take `CC(C)(CO)[C@@H](O)C(=O)NCCC(=O)[O-].[Na+]` [Sodium pantothenate]: the Melting/dissolution result was “◯”.
In the case of `OC[C@H]1O[C@@](CO)(O[C@H]2O[C@H](CO)[C@@H](O)[C@H](O)[C@H]2O)[C@@H](O)[C@@H]1O` [Sucrose], the Melting/dissolution result is recorded as “◯”.
As for `OC[C@@H](O)[C@H](O)[C@@H](O)CO` [Xylitol], the Melting/dissolution result was “◯”.
On to `O=C[C@H](O)[C@@H](O)[C@H](O)CO` [Xylose], for which the Melting/dissolution result was “◯”.

The same data set, now with this note: auxiliary raw material mixed with 100 mg of Reb. D formulation, heated to melting point or higher, visual.
On to `C=C1CC[C@H](O)C/C1=C/C=C1\CCC[C@]2(C)[C@@H]([C@H](C)CCCC(C)C)CC[C@@H]12` [Vitamin D3], for which the Melting/dissolution entry was “◯”.

System in another data set: not given
Test: not given
The settings on record: times the sweetness of sugar / sucrose; cited from earlier work.
`CC1=CC(=O)NS(=O)(=O)O1` [acesulfame potassium]: the “sweetness relative to sugar (sucrose)” value is “about 200 times”.
As to `COC(=O)[C@H](Cc1ccccc1)NC(=O)[C@@H](N)CC(=O)O` [aspartame] (H-Asp-Phe-OMe), the “sweetness relative to sugar (sucrose)” value is reported as “about 180 times”.
As to `OC[C@H]1O[C@H](O[C@]2(CCl)O[C@H](CCl)[C@@H](O)[C@@H]2O)[C@H](O)[C@@H](O)[C@H]1Cl` [sucralose], the “sweetness relative to sugar (sucrose)” value was “about 600 times”.

The test system of a further data set is panelists trained about sensory attributes of sweeteners. As to the kind of experiment: Evaluation of flavor by trained panelists (Example Q). In kind it is in vivo. The settings on record: 300 mg/L in terms of Reb. A or Reb. D; sucrose 9 SEV; 5 panelists; 0 to 6 points, sucrose control = 3. Here is the method: In order to confirm effects of the three-component complex of erythritol/Reb. D/fructose, evaluation of flavor was made. Reb. A and Reb. D were also used, and sucrose was used as a control. Each of a two-component complex and a three-component complex was prepared as a solid according to the method of the working example so that about 3.6% of Reb. D was contained. Each of the complexes or Reb. A was subjected to adjustment by adding water thereto in a manner such that the amount in terms of Reb. A or Reb. D became 300 mg/L. The concentration of the sucrose solution was adjusted to be 9 SEV (sucrose equivalent value). Evaluation of taste quality was made by panelists trained about sensory attributes of sweeteners (5 members). The respective items of evaluation of flavor (on-set speed, lingering sweet aftertaste, bitterness intensity, lingering bitter aftertaste and comprehensive evaluation) were scored in a range of 0 to 6 points. As a reference, sucrose alone was used as a control (3 points). 6 points means high on-set speed of sweetness, short lingering sweet aftertaste, low bitterness intensity, short lingering bitter aftertaste and satisfactory overall evaluation.
In turn, `C=C1C[C@@]23CC[C@H]4[C@@](C)(CCC[C@@]4(C)C(=O)O[C@@H]4O[C@H](CO)[C@@H](O)[C@H](O)[C@H]4O)[C@@H]2CC[C@]1(O[C@@H]1O[C@H](CO)[C@@H](O)[C@H](O[C@@H]2O[C@H](CO)[C@@H](O)[C@H](O)[C@H]2O)[C@H]1O[C@@H]1O[C@H](CO)[C@@H](O)[C@H](O)[C@H]1O)C3` [Reb. A, rebaudioside A] showed a Bitterness intensity of 2.10 points, a Comprehensive evaluation of 1.70 points, a Lingering bitter aftertaste of 1.70 points and a Lingering sweet aftertaste of 1.70 points. The molecule further showed an On-set speed of 2.60 points.
The molecule `C=C1C[C@@]23CC[C@H]4[C@@](C)(CCC[C@@]4(C)C(=O)O[C@@H]4OC(CO)[C@@H](O)C(O)C4O[C@@H]4OC(CO)[C@@H](O)C(O)C4O)[C@@H]2CC[C@]1(O[C@@H]1OC(CO)[C@@H](O)C(O[C@@H]2OC(CO)[C@@H](O)C(O)C2O)C1O[C@@H]1OC(CO)[C@@H](O)C(O)C1O)C3` (some centres unmarked) [Reb. D, rebaudioside D] displayed a Bitterness intensity of 2.10 points, a Comprehensive evaluation of 2.20 points, a Lingering bitter aftertaste of 2.40 points and a Lingering sweet aftertaste of 2.50 points. Besides, the On-set speed is reported as 2.40 points.
In the case of `OC[C@H]1O[C@@](CO)(O[C@H]2O[C@H](CO)[C@@H](O)[C@H](O)[C@H]2O)[C@@H](O)[C@@H]1O` [Sucrose], the Bitterness intensity is given as 3.00 points, the Comprehensive evaluation was found to be 3.00 points, the Lingering bitter aftertaste worked out at 3.00 points and the Lingering sweet aftertaste came to 3.00 points. The On-set speed is 3.00 points.

System in a further data set: not given
Test: not given
In kind it is physicochemical.
Settings: not given
From the text:
In an embodiment of the present invention, the content of Reb. D in the complex is an amount equal to or less than the saturation solubility relative to the at least one compound selected from the carbohydrates and the water-soluble vitamins and the salts thereof. The saturation solubility means an amount (mg) with which Reb. D is no longer dissolved in a melt of 1 g of the at least one compound selected from the carbohydrates and the water-soluble vitamins and the salts thereof. The saturation solubility varies depending on the type of the compound and the temperature of the melt, but can be easily and accurately confirmed by actually forming a melt and dissolving Reb. D therein. For example, when forming a melt by using erythritol, 112 mg of Reb. D is dissolved in 1 g of erythritol at 190° C. (i.e., 112 mg/g).
Turning to `C=C1C[C@@]23CC[C@H]4[C@@](C)(CCC[C@@]4(C)C(=O)O[C@@H]4OC(CO)[C@@H](O)C(O)C4O[C@@H]4OC(CO)[C@@H](O)C(O)C4O)[C@@H]2CC[C@]1(O[C@@H]1OC(CO)[C@@H](O)C(O[C@@H]2OC(CO)[C@@H](O)C(O)C2O)C1O[C@@H]1OC(CO)[C@@H](O)C(O)C1O)C3` (some centres unmarked) [Reb. D, rebaudioside D], the “saturation solubility of Reb. D in erythritol melt” value is recorded as 112 mg/g.

Values taken from patent US12662504B2, “High-solubility rebaudioside D complex” (SUNTORY HOLDINGS LIMITED, priority 2019, dated 2026).
